Patent US12600724B2, “Indole alkaloid and preparation method and use thereof” (NANJING UNIVERSITY OF CHINESE MEDICINE, priority 2022, dated 2026)

Key:
Assay type in all cases: in vivo, BKS db/db mice
[1] = tested on: type-2 diabetes model db/db mice; assay: Latent period of thermal pain, type-2 diabetes db/db mice; details: S26 46.8 mg/kg/day intragastric, Mean ± SD, n = 6
Experimental: Type-2 diabetes mice: male 18-week-old BKS db/db mice were purchased from Jiangsu Gempharmatech Biotechnology Co., Ltd. One week after adaptive feeding, the mice were divided into a control group (db/m mice), a model group (db/db mice) and a S26 administration group (46.8 mg/kg/day) respectively according to body weight and blood sugar, and administrated intragastrically for four weeks continuously. A response of an animal to infrared thermal stimulation was detected weekly by an infrared plantar pain threshold detector (37370, purchased from Ugo Basile Company) before and after administration to characterize a thermal pain sensitivity of the animal. A mouse was put into a single cage equipped for the machine in advance to adapt for 20 minutes, and then plantar thermal stimulation was carried out on the mouse. […] The thermal pain sensitivity was evaluated by comparing the thermal stimulation time.

[2] = tested on: DRG neurons of type-2 diabetes peripheral neuropathy model mice; assay: Axon growth of DRG neuron cells taken after administration, type-2 mice
Experimental: Type-2 diabetes mice: male 18-week-old BKS db/db mice were purchased from Jiangsu Gempharmatech Biotechnology Co., Ltd. One week after adaptive feeding, the mice were divided into a control group (db/m mice), a model group (db/db mice) and a S26 administration group (46.8 mg/kg/day) respectively according to body weight and blood sugar, and administrated intragastrically for four weeks continuously. After administration, a fresh DRG neuron of a mouse was extracted to digest into a single-cell suspension and then inoculated into a culture plate for adherent culture overnight. A β-tubulin III (Sigma) protein of the DRG neuron cells was labeled by an immunofluorescence staining method. The protein was imaged by a fluorescence microscope (Leica), and a total axon length of a single DRG neuron cell was tracked by a Neuro J plug-in in Image J software.

[3] = tested on: type-2 diabetes model db/db mice; assay: Motor nerve conduction velocity, type-2 diabetes db/db mice; details: for Motor nerve conduction velocity: db/db mice, S26 46.8 mg/kg/day intragastric, Mean ± SD, n = 3
Experimental: Type-2 diabetes mice: male 18-week-old BKS db/db mice were purchased from Jiangsu Gempharmatech Biotechnology Co., Ltd. One week after adaptive feeding, the mice were divided into a control group (db/m mice), a model group (db/db mice) and a S26 administration group (46.8 mg/kg/day) respectively according to body weight and blood sugar, and administrated intragastrically for four weeks continuously. Before administration, 2 weeks and 4 weeks after administration, motor nerve conduction velocities (MNCV) of left and right sides of each group of mice were detected, and a mean value of the velocities of two sides was taken as a nerve conduction velocity of each mouse. Specific experimental method: (1) electrode placement: a stimulating electrode was placed on a nerve trunk, a recording electrode was placed on a muscle belly, and a reference electrode was placed on a muscle tendon; and a ground electrode was placed between the stimulating electrode and the recording electrode. (2) Calculation of motor nerve conduction velocity: distal and proximal ends of the nerve trunk were stimulated in a super-strong manner, a compound muscle action potential could be recorded twice on a muscle innervated by the nerve, different latent periods of the compound muscle action potentials were measured, and a distance between the distal and proximal ends was divided by a difference between the two latent periods, so as to obtain the nerve conduction velocity. Computational formula: nerve conduction velocity (m/s)=distance between two ends (cm)×10/difference between two latent periods (ms).

Question: `CC[C@@]12C=C(C(=O)NCC(=O)OCCOCCOCCOCCO)n3c4c(c5ccccc53)CCN(CCC1)[C@H]42` [Compound S26] was tested. Which “Latent period of thermal pain” value ([1]; week 0 of administration) did it give?
Answer: 15.55 ± 2.29 ^ s

Question: What about the “Latent period of thermal pain” value ([1]; week 1 of administration) of the same compound?
Answer: 13.50 ± 2.05 ^ s

Question: And the “Latent period of thermal pain” value ([1]; week 2 of administration)?
Answer: 12.00 ± 2.28 s

Question: What about the “Latent period of thermal pain” value ([1]; week 3 of administration) of the same compound?
Answer: 8.62 ± 1.51 s

Question: And the “Latent period of thermal pain” value ([1]; week 4 of administration)?
Answer: 7.65 ± 1.30 s

Question: And the Total axon length ([2]; Type-2 db/db mice, DRG neurons extracted after four weeks of S26 46.8 mg/kg/day intragastric, Mean (SD in the cell below), n = 6)?
Answer: 6070.18 pixel

Question: And the “Axon growth conditions of DRG neurons (in words, FIG. 1)” value ([2]; type-2 diabetes peripheral neuropathy model mice)?
Answer: obviously improve

Question: What about the “Motor nerve conduction velocity” value ([3]; week 0 of administration) of the same compound?
Answer: 20.45 ± 3.94^ m/s

Question: And the “Motor nerve conduction velocity” value ([3]; week 2 of administration)?
Answer: 29.70 ± 4.27 m/s

Question: What about the “Motor nerve conduction velocity” value ([3]; week 4 of administration) of the same compound?
Answer: 36.57 ± 3.34 m/s

Question: And the “Motor nerve conduction velocity and anesthesia symptom (in words)” value ([3]; type-2 diabetes mouse, Tables 5 to 7)?
Answer: obviously improve
